Here are results for 18 compounds from publication PMC6264741, “Chemical Constituents and Biological Studies of the Leaves of Grevillea robusta” (Molecules, 2011).

Usually IC50 stands for the concentration at which inhibition is half-maximal. By melting point is commonly meant the temperature of the solid-liquid transition.

Data set [1] has as its system MCF-7 human breast tumor cell line. Put plainly: Cytotoxicity assay, MCF-7. It is filed as cell-based. The conditions noted are these: MCF7, mean ± SD (n = 3–8). On the procedure:
(§1) Compounds 1−8, 11−18, 20, and 21 were subjected to cytotoxic evaluation. The clinically applied anticancer agent, actinomycin D, was used as a positive control for the cytotoxicity assays.
(§2) The cytotoxicity assay was carried out according to procedures that have been previously described in the literature.

Data set [2] has as its system SF-268 human central nervous system tumor cell line. Put plainly: Cytotoxicity assay, SF-268. It is filed as cell-based. The conditions noted are these: mean ± SD (n = 3–8). As for the experimental part: as §1, §2
Data set [3] concerns NCI-H460 human lung tumor cell line. As to the kind of experiment: Cytotoxicity assay, NCI-H460. It is filed as cell-based. The following applies: mean ± SD (n = 3–8). On the procedure:
as §1, §2

Data set [4] concerns MCF-7 human breast tumor cell line. Details: method as in PMID 20704331. The conditions noted are these: positive control; cited from earlier work.
In data set [5] the test system is SF-268 human central nervous system tumor cell line. Details: method as in PMID 20704331. The conditions noted are these: positive control; cited from earlier work.
The test system of data set [6] is NCI-H460 human lung tumor cell line. Details: method as in PMID 20704331. The conditions noted are these: positive control; cited from earlier work.
Data set [7] in a line: DPPH free radical scavenging activity assay. Set-up: DPPH inhibition activity (Inhibition %): dose or concentration left out as unconfirmed. The conditions noted are these: mean ± S.E.M (n = 3); for IC50: 0.1 mM DPPH in ethanol, 30 min, 517 nm, read-out: DPPH inhibition activity IC50. On the procedure: The free radical scavenging activity of compounds 1, 4, 5, 7, 8, 11−18, and 20 was measured with DPPH^• using the method of Chiu et al.. Briefly, 0.1 mM solution of DPPH^• in ethanol was prepared, and sample (20 μL) was added. The sample was thoroughly mixed and kept in the dark for 30 min. The absorbance was measured at 517 nm on a Quant universal microplate spectrophotometer. α-Tocopherol (Sigma Chemical Co.) was used as a standard agent. A lower absorbance of the reaction mixture indicated a higher free radical scavenging activity. The sample concentration that was used to provide the IC50 data was calculated from a graph plotting inhibition percentage against sample concentration. Tests were performed in triplicate.

Read-outs that look alike come from different tables or passages of the source. Numbered stars: 1 amine (or outer) side, 2 acyl side, 3 side chain; on linkers, the order of the positions; unused ones are H or OH. Bridge positions count the residues as written; N and C are the ends. Square brackets hold non-standard residues; d marks the D form. Peptide text beside a SMILES is read from it. I, II: the chains in the order shown. Actinocin(9to1) = Cc1c2oc3c(C)ccc(C(=O)[*:1])c3nc-2c(C(=O)[*:2])c(N)c1=O; NMeV = CN[C@H](C(=O)O)C(C)C; Sar = CNCC(=O)O

For `CCCCCCCCCCCCCCC[C@H]1CC(=O)C[C@@H](O)C1` (relative stereo) [Compound 2, cis-3-hydroxy-5-pentadecylcyclohexanone], the melting point was 62 to 64 °C. Besides, in data set [1], the IC50 amounted to 26.7 ± 1.9 µM. The compound also displayed an IC50 in data set [2] of 20.5 ± 0.6 µM. For the same compound, the IC50 in data set [3] is 42.6 ± 3.6 µM.

As to `Cc1c2oc3c(C)ccc(C(=O)N[C@@H]4C(=O)N[C@H](C(C)C)C(=O)N5CCC[C@H]5C(=O)N(C)CC(=O)N(C)[C@@H](C(C)C)C(=O)O[C@@H]4C)c3nc-2c(C(=O)N[C@@H]2C(=O)N[C@H](C(C)C)C(=O)N3CCC[C@H]3C(=O)N(C)CC(=O)N(C)[C@@H](C(C)C)C(=O)O[C@@H]2C)c(N)c1=O` [Actinomycin D, actinomycin D] (I: T[dV]P[Sar][NMeV] / II: T[dV]P[Sar][NMeV]; ester I:1-I:C, II:1-II:C; linker I:N-II:N via Actinocin(9to1)), the IC50 in data set [4] is 0.103 µM; in data set [5], 0.016 µM; in data set [6], 0.008 µM.

For the compound `COC(=O)/C=C/C1(O)C=CC(=O)C=C1` [Compound 1, 4-hydroxy-4-(3-methoxycarbonyl)ethenylcyclohexadien-1-one], the IC50 came out at 15 ± 3 µM in data set [1], 23 ± 0.53 µM in data set [7], 5.9 ± 0.1 µM in data set [2] and 10.8 ± 2.3 µM in data set [3].

Turning to `CCOc1ccc(O)c(C=CC(=O)OC)c1` [Compound 3, methyl 5-ethoxy-2-hydroxycinnamate], the melting point lay in the range of 98 to 100 °C. The IC50 in data set [1] was > 50 µM. Further, in data set [2], the IC50 is > 50 µM. For the same compound, the IC50 in data set [3] is > 50 µM.

For `COC(=O)C=Cc1cc(O)ccc1O` [Compound 4, methyl 2,5-dihydroxycinnamate], the IC50 in data set [1] is > 50 µM; in data set [7], 0.53 ± 0.09 µM; in data set [2], > 50 µM; in data set [3], > 50 µM.

As to `Oc1cc2cc(c1)Oc1c(O)cc(cc1O)[C@H](O)CCCCCCCCCCCCC2` [Compound 5, gravicycle], the IC50 in data set [7] came out at 25.7 ± 0.32 µM.

Regarding `Oc1cc2cc(c1)Oc1c(O)cc(cc1O)CCCCCCCCCCCCCC2` [Compound 7, robustol], in data set [7], the IC50 was found to be 28.8 ± 0.42 µM.

On to `Oc1cc2cc(c1)Oc1c(O)cc(cc1O)CCCCCCCC=CCCCCC2` [Compound 8, dehydrobustol-A], for which the IC50 in data set [7] was 11.8 ± 0.88 µM.

For `COc1cc(O)cc2c1-c1c(O)cc(cc1O)CCCCCCCCCCCCCC2` [Compound 11, methylgraviphane], the “DPPH inhibition activity (Inhibition %)” value in data set [7] is “(28.21 ± 0.23) %”.

On to `COc1cc(O)cc2c1-c1c(O)cc(cc1O)CCCCCCCC=CCCCCC2` [Compound 12, methyldehydrograviphane], for which the IC50 in data set [7] is 15.7 ± 0.31 µM.

On to `Oc1cc(O)c2c(c1)CCCCCCCCCCCCCCc1cc(O)c-2c(O)c1` [Compound 13, graviphane], for which, in data set [7], the IC50 was determined as 3.96 ± 0.55 µM.

For `Oc1cc(O)c2c(c1)CCCCC/C=C/CCCCCCCc1cc(O)c-2c(O)c1` [Compound 14, dehydrograviphane], the IC50 in data set [7] was found to be 2.05 ± 0.22 µM.

Consider `COc1cc(O)cc(CCCCCCCCCCCCCCc2cc(O)cc(O)c2)c1` [Compound 15, bisgravillol], for which the IC50 in data set [7] came out at 36.7 ± 0.43 µM.

For `COc1cc(O)cc(CCCCCCC/C=C/CCCCCc2cc(O)cc(O)c2)c1` [Compound 16, dehydrobisgravillol], the IC50 in data set [7] was found to be 28.9 ± 0.67 µM.

As to `Oc1cc(O)cc(CCCCCCCCCCCCCCc2cc(O)cc(O)c2)c1` [Compound 17, bis-norstriatol], the IC50 in data set [7] is 31.3 ± 0.34 µM.

For `Oc1cc(O)cc(CCCCCC=CCCCCCCCc2cc(O)cc(O)c2)c1` [Compound 18, 5-[14'-(3'',5''-dihydroxyphenyl)-cis-tetradec-6'-en-1'-yl]benzene-1,3-diol], the IC50 in data set [7] was 35.2 ± 0.48 µM.

On to `CCCCCCCCCCCCCCCc1cc(O)cc(O)c1` [Compound 20, cis-5-n-pentadecylresorcinol], for which, in data set [7], the “DPPH inhibition activity (Inhibition %)” value is recorded as “(21.32 ± 0.21) %”.

Consider `Cc1c(C)c2c(c(C)c1O)CC[C@@](C)(CCC[C@H](C)CCC[C@H](C)CCCC(C)C)O2` [α-tocopherol, reference compound], for which the IC50 in data set [7] was 3.1 ± 0.05 µM.
